The text below walks through data of patent US20150164899A1, “INHIBITION OF ADAPTOR ASSOCIATED KINASE 1 FOR THE TREATMENT OF PAIN” (priority 2012, published 2015).

In general, IC50 refers to the point on the concentration scale where inhibition reaches its midpoint.

Where two headings read alike, the source gives them in different places.

One test deals with T1, GST-Xa-hAAK1 (Homo sapiens, UniProt Q2M2I8).
T1 construct: made in house
Kind of test: Caliper assay. The format is biochemical. To be noted: aryl ethers. As to the method:
The assays were performed in U-bottom 384-well plates. The final assay volume was 30 μl prepared from 15 μl additions of enzyme and substrates (fluoresceinated peptide (5-FAM)-Aha-[…]-NH2 and ATP) and test compounds in assay buffer (10 mM Tris-HCL pH 7.4, 10 mM MgCl2, 0.01% Tween-20 and 1.0 mM DTT). The reactions were initiated by the combination of bacterially expressed, GST-Xa-hAAK1 with substrates and test compounds. The reactions were incubated at room temperature for 3 hours and terminated by adding 60 μl of 35 mM EDTA buffer to each sample. The reactions were analyzed on the Caliper LabChip 3000 (Caliper, Hopkinton, Mass.) by electrophoretic separation of the fluorescent substrate and phosphorylated product. […] The final concentration of reagents in the assays are ATP, 22 μM; (5-FAM)-Aha-[…]-NH2, 1.5 μM; GST-Xa-hAAK1, 3.5 nM; and DMSO, 1.6%. Dose response curves were generated to determine the concentration required inhibiting 50% of kinase activity (IC50). Compounds were dissolved at 10 mM in dimethylsulfoxide (DMSO) and evaluated at eleven concentrations. IC50 values were derived by non-linear regression analysis.

The target of test [1] is T2, AAK1 (full length human) in transfected HEK293F cells (Homo sapiens, UniProt Q2M2I8).
T2 construct: expressed in transfected cells; host or cells: HEK293F
Kind of test: HEK281 cell-based assay (phospho-mu2 Western blot). As to conditions: read-out: CBA IC50.

Test [2] relates to formalin-induced paw flinching. Kind of test: formalin paw test. Type of test: in vivo. To be noted: mice. As to the method:
See example 5.4.1, above. The same test was used to confirm that the administration of an AAK1 inhibitor can also affect pain response.
Mice were tested for nociception with Automatic Nociception Analyzers (purchased from the Ozaki lab at University of California, San Diego). A metal band was placed around the left hind paw of each mouse with superglue 30 minutes prior to testing. After the 30-minute acclimation period, 20 μl of 5% formalin was subcutaneously injected in the dorsal surface of the left hind paw. Mice were individually housed in cylindrical chambers for 45 minutes. Fresh 5% formalin solution was prepared by diluting formaldehyde (Formalde-fresh 20%, Fisher Scientific, Fair Lawn, N.J.) with distilled water. Investigatory compounds were administered 30 minutes prior to formalin injection.
A computer software recorded flinches per minute, total flinches for Phase I (acute phase=first 8 minutes), and total flinches for Phase II (tonic phase between 20-40 minutes) through an electromagnetic field. See Yaksh T L, Ozaki G, McCumber D, Rathbun M, Svensson C, Malkmus S, Yaksh M C. An automated flinch detecting system for use in the formalin nociceptive bioassay. J Appl Physiol., 2001; 90:2386-402.
Various compounds of the invention were tested at different doses. Gabapentin and pregabalin were used as positive controls. Results are shown below in Table 2, wherein “*” means an effect equal to or greater than 50 percent of that of gabapentin at 200 mpk, “**” means an effect equal to or greater than 100 percent of that of gabapentin at 200 mpk, “sc” means subcutaneous administration, “ip” means in intraperitoneal administration, and “po” means oral administration.

Setting [3] is: HEK281 cell-based assay, pyrazolo[1,5-a]pyrimidine-based inhibitors.

T1 sequence (Q2M2I8 whole entry): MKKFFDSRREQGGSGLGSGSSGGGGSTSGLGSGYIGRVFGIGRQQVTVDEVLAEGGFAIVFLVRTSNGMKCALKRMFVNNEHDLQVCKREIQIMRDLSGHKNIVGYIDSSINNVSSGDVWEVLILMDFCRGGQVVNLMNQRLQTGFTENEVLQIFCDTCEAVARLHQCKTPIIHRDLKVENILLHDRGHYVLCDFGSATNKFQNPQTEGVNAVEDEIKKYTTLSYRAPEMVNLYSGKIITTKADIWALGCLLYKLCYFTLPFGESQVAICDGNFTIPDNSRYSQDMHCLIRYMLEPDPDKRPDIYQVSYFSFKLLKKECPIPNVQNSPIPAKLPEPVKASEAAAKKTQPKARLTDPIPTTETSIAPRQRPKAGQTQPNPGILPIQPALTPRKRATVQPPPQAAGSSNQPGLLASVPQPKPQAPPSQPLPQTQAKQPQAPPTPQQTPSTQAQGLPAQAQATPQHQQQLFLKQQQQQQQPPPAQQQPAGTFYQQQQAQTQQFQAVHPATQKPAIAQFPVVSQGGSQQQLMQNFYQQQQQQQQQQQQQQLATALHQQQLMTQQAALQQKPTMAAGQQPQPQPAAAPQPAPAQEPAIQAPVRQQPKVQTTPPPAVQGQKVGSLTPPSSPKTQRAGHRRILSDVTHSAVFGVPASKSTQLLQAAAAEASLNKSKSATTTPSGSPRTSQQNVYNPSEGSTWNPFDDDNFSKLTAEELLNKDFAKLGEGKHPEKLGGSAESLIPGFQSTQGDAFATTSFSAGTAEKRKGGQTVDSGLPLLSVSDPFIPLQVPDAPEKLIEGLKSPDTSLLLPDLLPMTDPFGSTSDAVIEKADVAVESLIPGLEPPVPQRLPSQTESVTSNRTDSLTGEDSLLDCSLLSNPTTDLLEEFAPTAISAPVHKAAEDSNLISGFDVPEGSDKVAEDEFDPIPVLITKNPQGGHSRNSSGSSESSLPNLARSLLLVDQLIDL
T2 sequence (Q2M2I8 1-863 isoform Q2M2I8-2): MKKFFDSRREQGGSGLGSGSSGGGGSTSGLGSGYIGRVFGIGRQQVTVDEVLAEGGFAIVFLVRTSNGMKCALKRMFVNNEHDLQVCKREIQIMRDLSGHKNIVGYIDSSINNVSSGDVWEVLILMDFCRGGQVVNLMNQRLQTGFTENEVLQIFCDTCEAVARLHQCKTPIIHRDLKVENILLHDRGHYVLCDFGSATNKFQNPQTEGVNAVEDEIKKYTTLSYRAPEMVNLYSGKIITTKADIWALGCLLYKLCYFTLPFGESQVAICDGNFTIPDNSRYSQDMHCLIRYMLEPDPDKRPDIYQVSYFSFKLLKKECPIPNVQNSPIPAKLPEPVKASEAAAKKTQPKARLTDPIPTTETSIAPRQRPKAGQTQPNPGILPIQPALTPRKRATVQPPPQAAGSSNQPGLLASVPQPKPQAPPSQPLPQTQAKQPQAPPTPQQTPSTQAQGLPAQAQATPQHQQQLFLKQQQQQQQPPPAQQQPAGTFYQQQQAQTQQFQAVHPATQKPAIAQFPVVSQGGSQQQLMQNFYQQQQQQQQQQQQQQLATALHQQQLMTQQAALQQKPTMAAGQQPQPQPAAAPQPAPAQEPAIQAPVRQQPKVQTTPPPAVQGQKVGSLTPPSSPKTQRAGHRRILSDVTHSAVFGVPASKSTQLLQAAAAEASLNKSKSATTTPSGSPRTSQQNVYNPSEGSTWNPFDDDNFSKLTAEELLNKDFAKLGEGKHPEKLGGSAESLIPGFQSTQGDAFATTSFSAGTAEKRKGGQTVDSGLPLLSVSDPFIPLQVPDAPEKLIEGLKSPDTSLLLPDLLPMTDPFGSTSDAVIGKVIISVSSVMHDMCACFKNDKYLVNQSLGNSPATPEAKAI

`N[C@@H](COc1ccc2c(c1)OCc1cnccc1-2)Cc1ccccc1`: on GST-Xa-hAAK1 (numeric values), the half-maximal inhibitory concentration (IC50) came to 293 nM.

For the compound `CC(C)C[C@@H](N)COc1ccc2c(c1)OC(C)c1cnccc1-2` (stereo partly shown), the IC50 was above 300 nM in test [1] (aryl ethers, numeric values) and 10 to 100 nM on GST-Xa-hAAK1 (class symbols).

As for `CCc1cc2c(cc1OC[C@@H](N)CC(C)C)OC(CC)c1cnccc1-2` (stereo partly shown), the 50% inhibitory concentration (IC50) is 18 nM in test [1] (aryl ethers, numeric values) and 10 to 100 nM on GST-Xa-hAAK1 (class symbols).

Take `CCC1Oc2cc(OC[C@@H](N)CC(C)C)ccc2-c2ccncc21` (stereo partly shown): the IC50 in test [1] (aryl ethers, numeric values) was 56 nM; on GST-Xa-hAAK1 (numeric values), 12 nM.

As for `CC(C)C[C@H](N)COc1ccc2c(c1)OCc1cnc(N)cc1-2`, the IC50 lay within 1 to 10 nM in test [1] (aryl ethers, class symbols) and 1 to 10 nM on GST-Xa-hAAK1 (class symbols).

For `CC(C)C[C@H](N)COc1cc2c(cc1Br)-c1ccncc1CO2`, the IC50 was determined as 2.5 nM in test [1] (aryl ethers, numeric values) and 0.86 nM at GST-Xa-hAAK1 (numeric values).

As for `COc1ccccc1-c1cnn2ccc(NC[C@@H]3CCCN3C(=O)OC(C)(C)C)nc12` [(S)-tert-butyl 2-(((3-(2-methoxyphenyl)pyrazolo[1,5-a]pyrimidin-5-yl)amino)methyl)pyrrolidine-1-carboxylate], the IC50 in test [1] (setting [3]) was at most 10 nM. Further, the Effect entry in test [2] (10 mpk sc) and in test [2] (60 mpk sc) was “* (an effect equal to or greater than 50% of that of gabapentin at 200 mpk)” in each case.

For the compound `CC(C)(C)OC(=O)N1CCC[C@H]1CNc1ccn2ncc(-c3ccncc3)c2n1` [(S)-tert-butyl 2-(((3-(pyridin-4-yl)pyrazolo[1,5-a]pyrimidin-5-yl)amino)methyl)pyrrolidine-1-carboxylate], in test [1] (setting [3]), the IC50 was at most 10 nM. Moreover, in test [2] (30 mpk sc), the Effect result is listed as “** (an effect equal to or greater than 100% of that of gabapentin at 200 mpk)”.

In the case of `CC(C)C[C@@H](N)COc1ccc2c(c1)OCc1cnccc1-2` [drawing 25], the IC50 at GST-Xa-hAAK1 (class symbols) is 10 to 100 nM.

Turning to `CC(C)C[C@H](N)COc1ccc2c(c1)OC(C)c1cnccc1-2` (stereo partly shown) [drawing 30], on GST-Xa-hAAK1 (numeric values), the IC50 was 4.9 nM.

Take `CC(C)C[C@H](N)COc1ccc2c(c1)OC(C)c1cnccc1-2` (stereo partly shown) [drawing 31]: the IC50 was 25 nM in test [1] (aryl ethers, numeric values) and 10 to 100 nM at GST-Xa-hAAK1 (class symbols).

For `CC(C)C[C@H](N)COc1ccc2c(c1)OC(C1CC1)c1cnccc1-2` (stereo partly shown) [drawing 36], the IC50 at GST-Xa-hAAK1 (class symbols) is 100 to 1000 nM.

In the case of `CC(C)C[C@H](N)COc1ccc2c(c1)OC(C1CC1)c1cnccc1-2` (stereo partly shown) [drawing 37], the IC50 in test [1] (aryl ethers, numeric values) was 18 nM; at GST-Xa-hAAK1 (class symbols), 1 to 10 nM.

With `COc1ccccc1-c1cnn2ccc(N3CCN(C(=O)OC(C)C)CC3)nc12` [isopropyl 4-(3-(2-methoxyphenyl)pyrazolo[1,5-a]pyrimidin-5-yl)piperazine-1-carboxylate], the Effect result in test [2] (30 mpk sc) is reported as “** (an effect equal to or greater than 100% of that of gabapentin at 200 mpk)”.

`COc1ncccc1-c1cnn2ccc(N3CCN(C(=O)OC(C)C)CC3)nc12` [isopropyl 4-(3-(2-methoxypyridin-3-yl)pyrazolo[1,5-a]pyrimidin-5-yl)piperazine-1-carboxylate]: the Effect entry was “* (an effect equal to or greater than 50% of that of gabapentin at 200 mpk)” in test [2] (10 mpk po) and “** (an effect equal to or greater than 100% of that of gabapentin at 200 mpk)” in test [2] (30 mpk po).

Take `CN(CCNc1ccc2ncc(-c3ccc(C(N)=O)cc3)n2n1)C(=O)OC(C)(C)C` [tert-butyl (2-((3-(4-carbamoylphenyl)imidazo[1,2-b]pyridazin-6-yl)amino)ethyl)(methyl)carbamate]: the Effect result in test [2] (60 mpk sc) and in test [2] (100 mpk po) was “** (an effect equal to or greater than 100% of that of gabapentin at 200 mpk)” each time.
